Patent publication US11744273B2, “Sweetness enhancing volatile compositions and methods of increasing perceived sweetness of a comestible” (University of Florida Research Foundation, Inc., priority 2016, dated 2023)

tested on: sweetness; assay: Blueberry sensory panels; multiple regression of volatiles against sweetness independent of fructose, glucose and/or sucrose (Table 8); type: in vivo, human; conditions: contribution to sweetness independent of fructose
Source text: Panelists were trained with the scaling methods and were encouraged to return for the remainder of the study. […] Panelists were also asked to rate the intensity of taste and flavor sensations of a hypothetical ideal blueberry on this scale. Each panelist received two to four berries of five to six genotypes in a single panel in a Williams design, which was generated by Compusense 5.6 (Compusense Inc., Guelph, Ontario, Canada). They were asked to eat the blueberries of each genotype at once, and to take a bite of cracker and sip of water in between samples. Ratings were recorded using Compusense software.
Soluble solids content (SSC), titratable acidity (TA), and volatiles were quantified as described above for tomato and strawberries. The volatiles were collected for two hours via dynamic headspace with HaySep Q 80-100 porous polymer adsorbent (Valco Instruments Company Inc., Houston, Tex.) and eluted with methylene chloride and nonyl acetate as an elution standard. […] Integrated peak area of each signal was normalized for elution, fitted to relative pure chemical response, corrected for sample mass, and expressed as nanograms per gram fresh weight per hour (ng gFW-1 h-1). Response fitting was calculated using the response factor of pure chemical standards (Sigma-Aldrich, St. Louis, Mo.) run on the same instrument.
Pair-wise correlations and significance between sensory measurements and primary bio-chemical components were calculated, with panelist as a random effect. Least Square Means (LSMeans) of the sensory data for each sample were obtained to account of the random effect of panelist. […] The response variables (Y) considered corresponded to LSMeans of overall liking, sweetness, sourness, and blueberry flavor intensity. Glucose, fructose, sucrose, TA, pH, and 52 volatile compounds were considered as explanatory variables (X). The inclusion of texture liking was evaluated independently given that no explanatory physical measure was made for sample texture. […] The model was created without texture for analysis.

Compared with C=CC1(C)CCC(C(C)(C)O)O1 (stereo not drawn) [(Z)-linalool oxide (furanoid)], C=C1CC[C@H]2O[C@]2(C)CC[C@@H]2[C@@H]1CC2(C)C [(—)-Caryophyllene oxide] is higher in “t Ratio (Fructose)” value: 1.154 for the first, 1.845 for the second.

In the case of C=C(C)[C@H]1CC=C(C)CC1 [D-Limonene], the “t Ratio (Fructose)” value is reported as 1.176.

same assay, conditions: contribution to sweetness independent of glucose

Compared with C=CC1(C)CCC(C(C)(C)O)O1 (stereo not drawn) [(Z)-linalool oxide (furanoid)], C=C1CC[C@H]2O[C@]2(C)CC[C@@H]2[C@@H]1CC2(C)C [(—)-Caryophyllene oxide] is higher in “t Ratio (Glucose)” value: 1.356 for the first, 1.608 for the second.

C=C(C)[C@H]1CC=C(C)CC1 [D-Limonene] was tested, and the “t Ratio (Glucose)” value was “.954”.

same assay, conditions: contribution to sweetness independent of sucrose

In the case of C=CC1(C)CCC(C(C)(C)O)O1 (stereo not drawn) [(Z)-linalool oxide (furanoid)], the “t Ratio (Sucrose)” value is reported as 1.079.

C=C1CC[C@H]2O[C@]2(C)CC[C@@H]2[C@@H]1CC2(C)C [(—)-Caryophyllene oxide] was tested, and the “t Ratio (Sucrose)” value was “.982”.
In the case of C=C(C)[C@H]1CC=C(C)CC1 [D-Limonene], the “t Ratio (Sucrose)” value is reported as “.609”.

tested on: sweetness; assay: Blueberry sensory panels; PLS analysis, sweetness (Table 7); type: in vivo, human; conditions: multivariate regression analysis
Procedure: Sensory analysis was conducted similar to described above for tomatoes and strawberries in Examples 1 and 3. […] Panelists were trained with the scaling methods and were encouraged to return for the remainder of the study. Panelists rated overall liking, texture liking, sweetness, sourness, and flavor intensity using hedonic general Labeled Magnitude Scales (gLMS) (−100 to +100; −100=greatest disliking of any kind, +100=greatest liking of any kind) and intensity gLMS (0 to +100; 0=no sensation, 100=most intense sensation of any kind), which allow for improved comparison between panelists and between years (see Bartoshuk, L. M., et al., 2004 and Bartoshuk, L. M., et al., 2005). Panelists were also asked to rate the intensity of taste and flavor sensations of a hypothetical ideal blueberry on this scale. Each panelist received two to four berries of five to six genotypes in a single panel in a Williams design, which was generated by Compusense 5.6 (Compusense Inc., Guelph, Ontario, Canada). They were asked to eat the blueberries of each genotype at once, and to take a bite of cracker and sip of water in between samples. Ratings were recorded using Compusense software.
Soluble solids content (SSC), titratable acidity (TA), and volatiles were quantified as described above for tomato and strawberries. The volatiles were collected for two hours via dynamic headspace with HaySep Q 80-100 porous polymer adsorbent (Valco Instruments Company Inc., Houston, Tex.) and eluted with methylene chloride and nonyl acetate as an elution standard. Elutions were run on an Agilent 7890A Gas Chromatograph Flame Ionization Detector (GC-FID) DB-5 column (30 m length×[…]) for quantification and on an Agilent 7890A Gas Chromatograph coupled to an Agilent 5977A Mass Selective Detector (GC/MSD) for qualification (Agilent, Santa Clara, Calif.). Integrated peak area of each signal was normalized for elution, fitted to relative pure chemical response, corrected for sample mass, and expressed as nanograms per gram fresh weight per hour (ng gFW-1 h-1). Response fitting was calculated using the response factor of pure chemical standards (Sigma-Aldrich, St. Louis, Mo.) run on the same instrument.
Pair-wise correlations and significance between sensory measurements and primary bio-chemical components were calculated, with panelist as a random effect. Least Square Means (LSMeans) of the sensory data for each sample were obtained to account of the random effect of panelist. A partial least squares (PLS) analysis was constructed in JMP1 Pro 10 (SAS Institute Inc., Cary, N.C.) to reveal effectors of sensory ratings (see, e.g., Togari N., et al., 1995; Hough, G., et al., 1996; deKermadec, F., et al., 1997; Toscas, P. J., et al., 1999; and Tenenhaus, M., et al., 2005). The response variables (Y) considered corresponded to LSMeans of overall liking, sweetness, sourness, and blueberry flavor intensity. Glucose, fructose, sucrose, TA, pH, and 52 volatile compounds were considered as explanatory variables (X). The inclusion of texture liking was evaluated independently given that no explanatory physical measure was made for sample texture. […] The model was created without texture for analysis.
• Top six and bottom six biochemical measures explaining sensory responses as determined by partial least squares (PLS) analysis. […]

For CCCCCC(C)=O [2-Heptanone], the “independent enhancement of perception of sweetness” value was “independently enhancing perception of sweetness”.
With CC(C)=CCC/C(C)=C\C=O [neral] the “independent enhancement of perception of sweetness” value was “independently enhancing perception of sweetness”.

tested on: perceived sweetness; assay: Tomato taste panel; revised partial least squares regression against sweetness independent of fructose or glucose (Table 4); type: in vivo, human; conditions: sweetness independent of fructose
Procedure: (§1) Fully ripe fruit were harvested, and used for taste panels. A random subset of fruit was used for biochemical analysis. Three biological replicates, each consisting of 2-20 fruit (depending on fruit size), were assayed for each variety. […] Panelists were between the ages of 18 and 78 with a median age of 22. […] An average of 85 (range of 66-95) of these panelists evaluated between 4-6 varieties in a session. All panelists went through a training session to familiarize them with the scaling and procedures. Tomatoes were sliced into wedges (or in halves for grape/cherry types) and each panelist was given two pieces for evaluation. Panelists took a bite of each sample, chewed and swallowed it, and rated overall liking and liking for texture. They then rated the perceived intensities of sweetness, sourness, saltiness, umami sensation, bitterness and overall tomato flavor. They were free to take as many bites as necessary to complete the assessments. They were instructed to take a bite of an unsalted cracker and a sip of water between samples. Samples were presented to the panelists in a randomized order. Hedonic ratings used the hedonic gLMS. This scale assesses the liking for tomatoes in the context of all pleasure/displeasure experiences: 0=neutral, −100=strongest disliking of any kind experienced, and +100=strongest liking of any kind experienced. Sensory intensity ratings used the gLMS (7,8,19). This scale assesses taste and flavor sensations in the context of all sensory experience (7): 0=no sensation, 100=strongest sensation of any kind experienced. Both scales were devised to provide valid comparisons across subjects.
Biochemical and psychophysical data sets from fruit and fruit taste panels are mathematically probed for relationships using standard least squares and partial least squares regression modeling techniques (SAS JMP Pro 12.0.1 and R version 3.2.4 statistical software packages). The exact regression type is dependent on the structure of the data, i.e. depending on the size and distributions of the overall datasets.

First: CC1=C(C=O)C(C)(C)CCC1 [beta-cyclocitral]
Second: CC(=O)/C=C/C1=C(C)CCCC1(C)C [β-ionone]
The “FRUCTOSE t RATIO” value of the first is lower: 1.905 for the first, 2.12 for the second.

First: N[C@@H](CCC(=O)O)C(=O)O [glutamatic acid]
Second: C/C=C/C(=O)C1=C(C)C=CCC1(C)C [β-damascenone]
The “FRUCTOSE t RATIO” value of the first is lower: −1.746 for the first, 0.138 for the second.

same assay, conditions: sweetness independent of glucose

Going from CC1=C(C=O)C(C)(C)CCC1 [beta-cyclocitral] to CC(=O)/C=C/C1=C(C)CCCC1(C)C [β-ionone], the “GLUCOSE t RATIO” value rises from 1.688 to 1.748.

Compared with N[C@@H](CCC(=O)O)C(=O)O [glutamatic acid], C/C=C/C(=O)C1=C(C)C=CCC1(C)C [β-damascenone] is higher in “GLUCOSE t RATIO” value: −2.953 for the first, 0.678 for the second.

tested on: flavor intensity; assay: Tomato taste panel; association of compounds with tomato flavor intensity; type: in vivo, human; conditions: univariate models
Procedure: as §1
(§2) The 68 chemical compounds measured in this experiment were initially divided into six groups based upon biochemical properties: sugars, branched chain amino acids, lipids, carotenoids, phenolics, and acids. A small number of compounds for which biosynthetic pathways are not established were assigned to one of the six classes based upon their correlations with other classified compounds. All pairwise correlations among the set of 68 compounds were calculated. Correlation coefficients were sorted using Modulated Modularity Clustering (MMC) (9) as a visual aid for identifying compounds that are closely related in this sample. Biochemical groups were examined for compounds within the group that were highly correlated and compounds that were upstream in the relevant metabolic pathways were preferentially selected.
(§3) All analyses were performed in SAS v 9.2.
Due to the large number of chemicals potentially influencing liking, a multivariate analysis of the data was performed. The attributes were initially partitioned into six groups based upon chemical properties and biosynthetic pathways: sugars, branched chain amino acids, fatty acids, carotenoids, phenolics, and acids. […] Groups of structurally related chemicals with known metabolic links were examined for compounds within each module that were highly colinear and compounds that were upstream in relevant metabolic pathways were preferentially selected.

C/C=C/C(=O)C1=C(C)C=CCC1(C)C [β-damascenone] was tested, and the “association with flavor intensity” value was “not associated with tomato flavor intensity”.

tested on: sweetness; assay: Orange juice; partial least squares regression of volatiles against sweetness independent of total sugar (Table 9); type: in vivo, human; conditions: not given
Procedure: Volatile content of orange juice was assessed and analyzed similar to as described above for tomato, strawberry, and blueberry, described above. The process for obtaining volatile samples from orange juice was slightly different than for tomatoes, strawberries and blueberries. […] Briefly, instead of collecting volatiles at room temperature from a fruit mash in headspace of a closed area, the volatiles were elicited by heating the juice to collect volatiles.

Going from C[Si](C)(C)CCOC(=O)CC(=O)OCC[Si](C)(C)C [Malonic acid, bis(2-trimethylsilylethyl ester] to C[Si](C)(O)O [Silanediol, dimethyl-], the “Total Sugar t Ratio” value falls from 3.148 to 1.781.

Compared with CC1=CC[C@H]2[C@H]3[C@@H]1[C@]2(C)CC[C@H]3C(C)C [copaene], C=C(C)[C@@H]1CCC2=CCC[C@@H](C)[C@]2(C)C1 [valencene] is higher in “Total Sugar t Ratio” value: 2.06 for the first, 2.206 for the second.

First: CC(=O)/C=C/C1C(C)=CCCC1(C)C (stereo not drawn) [α-ionone]
Second: CC1=CCCC2(C)CCC3C(C)(C)CC132 (stereo not drawn) [α-panasinsen]
The “Total Sugar t Ratio” value of the first is lower: 2.042 for the first, 2.909 for the second.

Compared with C=C(C)[C@@H]1CC[C@@]2(C)CCC=C(C)[C@@H]2C1 [α-selinene], CC1=CC[C@H]2C(C)=CC[C@@H](C(C)C)[C@@H]2C1 [β-cadinene] is higher in “Total Sugar t Ratio” value: 2.428 for the first, 2.69 for the second.

Going from CC(=O)/C=C/C1=C(C)CCCC1(C)C [β-ionone] to C=C1CCCC2(C)CCC(=C(C)C)CC12 (stereo not drawn) [γ-Selinene], the “Total Sugar t Ratio” value rises from 1.28 to 4.272.

Compared with C=C(C)C1=C[C@]2(C)C(=CC1)CCC[C@H]2C [γ-vetivenene], b-caryophyllene/aromadendrene is lower in “Total Sugar t Ratio” value: 2.469 for the first, 1.565 for the second.

For neryl propanoate/Geranyl isobutanoate, the “Total Sugar t Ratio” value was 2.298.

tested on: perceived sweetness; assay: Tomato taste panel; initial multiple regression of volatiles against perceived sweetness (Table 3); type: in vivo, human; conditions: tomato volatiles; multiple regression, contribution to sweetness independent of the measures of sugar
Procedure: as §1, §2, §3
In conducting the multiple regression analysis on the tomato data set, the independent variables were the sugar content (glucose+fructose), and the flavor (indicated by the retronasal perception of volatiles), while the dependent variable was the perceived sweetness.

Compared with CC1=C(C=O)C(C)(C)CCC1 [beta-cyclocitral], CC(=O)/C=C/C1=C(C)CCCC1(C)C [β-ionone] is lower in t: 1.186 for the first, 1.135 for the second.

For C/C=C/C(=O)C1=C(C)C=CCC1(C)C [β-damascenone], the t was 1.012.
